# Reference: US10160954B2, “Engineered physical alignment of stem cell-derived cardiomyocytes” (The Regents of the University of California, priority 2013, dated 2018)
# Test system: hESC-VCMs
# Assay: Effect of isoproterenol on control and P5-aligned hESC-VCM preparations (optical mapping)
# Assay type: cell-based, human
# Conditions: for CV of control preparations: steady-state pacing at 1 Hz
# Procedure: HESC-VCM preparations were loaded with 4 μM di-4-ANEPPS (Invitrogen, USA) for 20 min at room temperature in Tyrode's solution, consisting of (mM) 140 NaCl, 5 KCl, 1 MgCl2, 1 CaCl2, 10 glucose, and 10 HEPES at pH 7.4, then washed twice before fluorescence imaging using a halogen light filtered by a 515±35 nm band-pass excitation filter and a 590 nm high-pass emission filter. High-resolution optical mapping of AP and conduction properties was performed using a MiCam Ultima (SciMedia, Calif., USA) with a 1X objective and a 1X condensing lens to yield a 10×10 mm^2 field of view. A custom heat plate was introduced to maintain the perfused Tyrode's solution at 37° C. Data were collected at a sampling rate of 200 Hz and analyzed using BV_Ana software (SciMedia). Isoproterenol (Sigma-Aldrich, N.Y., USA) was applied by perfusion at the concentrations indicated.
# Electrophysiological protocols were generated using a programmable stimulator (Master8, AMPI, Israel) with the stimuli delivered via a unipolar point-stimulation electrode (1.5× threshold, 10 ms duration) placed perpendicular to the preparation surface. […] The frequency was increased every minute in 0.1-Hz increments with a 5-sec pause.
# Mapping was performed during the last 5-10 seconds of each frequency. […] Programmed electrical stimulation, Standard (S1-S2) programmed electrical stimulation (PES) protocol was introduced to study the electrical restitution curve (ERC) of hESC-VCMs. A premature extra-stimulus (S2) was delivered after a train of eight S1 stimuli at a basic cycle length (BCL) of 650 ms. S1-S2 interval was initiated at 600 ms and consecutively shortened in steps of 20 ms until capture has failed. […] There was a pause of 10 s after each S2. The entire stimulation protocol was performed within 30 minutes after di-4-ANEPPS staining.
# [1] = P5-aligned preparations, 0.5 μM, n=3
structure (smiles),measurement,setting,value
CC(C)NCC(O)c1ccc(O)c(O)c1 (stereo not shown) [isoproterenol],CV of control preparations,"0.1 μM isoproterenol, n=3",6.3 ± 1.4 cm/s
same,CV of control preparations,"0.5 μM isoproterenol, n=3",7.6 ± 1.1 cm/s
same,CV of control preparations,"1.0 μM isoproterenol, n=3",8.1 ± 0.6 cm/s
same,depolarization (upstroke) velocity,"FIG. 6, hESC-VCMs",increasing
same,AP duration,"FIG. 6F, hESC-VCMs",reduces
same,sustained functional reentrant arrhythmias,"P5-aligned preparations, 0.5 μM, n=2",no sustained functional reentrant arrhythmias could be observed
same,L-CV after isoproterenol,[1],7.76 cm/s
same,T-CV after isoproterenol,[1],4.91 cm/s
same,AR after isoproterenol application,"P5-aligned preparations, n=2",1.76
same,control preparations with spontaneous spiral waves (sustained functional reentrant arrhythmias),"control substrates, 2 of 3 preparations, 0.5 μM per FIG. 6C",66%
